Assay results reported in ChEMBL document CHEMBL5678818, “Discovery of potent SOS1 inhibitors that block RAS activation via disruption of the RAS-SOS1 interaction” (Proc Natl Acad Sci U S A, 2019).

Tests used:
[1] = molecular target: Serine/threonine-protein kinase MRCK gamma (Homo sapiens) (UniProt Q6DT37); assay: Inhibition of DMPK2 (unknown origin) assessed as residual activity at 100 nM by KINOMEscan analysis relative to control
[2] = molecular target: T1, Serine/threonine-protein kinase TNNI3K (Homo sapiens) (UniProt Q59H18); assay: Inhibition of TNNI3K (unknown origin) assessed as residual activity at 100 nM by KINOMEscan analysis relative to control
T1 sequence (whole entry): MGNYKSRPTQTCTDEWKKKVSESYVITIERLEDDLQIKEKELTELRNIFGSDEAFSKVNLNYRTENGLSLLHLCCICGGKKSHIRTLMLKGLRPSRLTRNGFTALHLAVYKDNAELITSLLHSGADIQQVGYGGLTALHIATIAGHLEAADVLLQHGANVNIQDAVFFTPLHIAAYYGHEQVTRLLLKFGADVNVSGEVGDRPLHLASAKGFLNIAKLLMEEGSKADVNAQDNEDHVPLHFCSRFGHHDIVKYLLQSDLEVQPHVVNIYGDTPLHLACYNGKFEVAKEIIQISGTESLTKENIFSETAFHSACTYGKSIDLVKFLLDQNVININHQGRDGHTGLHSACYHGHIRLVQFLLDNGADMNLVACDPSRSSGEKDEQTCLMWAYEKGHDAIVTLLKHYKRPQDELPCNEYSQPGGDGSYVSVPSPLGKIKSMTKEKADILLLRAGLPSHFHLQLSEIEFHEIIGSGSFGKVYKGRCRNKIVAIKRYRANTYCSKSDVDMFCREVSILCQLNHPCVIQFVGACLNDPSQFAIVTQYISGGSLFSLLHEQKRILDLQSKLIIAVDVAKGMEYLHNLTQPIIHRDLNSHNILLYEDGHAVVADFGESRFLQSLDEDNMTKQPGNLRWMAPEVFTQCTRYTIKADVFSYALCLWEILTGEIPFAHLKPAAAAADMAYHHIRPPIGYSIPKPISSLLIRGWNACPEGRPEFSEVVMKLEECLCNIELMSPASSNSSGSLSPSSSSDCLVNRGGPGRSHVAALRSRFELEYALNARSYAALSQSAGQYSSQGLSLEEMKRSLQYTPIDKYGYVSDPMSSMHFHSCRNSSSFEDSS

[3] = molecular target: T2, Ephrin type-B receptor 6 (Homo sapiens) (UniProt O15197); assay: Inhibition of EPHB6 (unknown origin) assessed as residual activity at 100 nM by KINOMEscan analysis relative to control
T2 sequence (whole entry): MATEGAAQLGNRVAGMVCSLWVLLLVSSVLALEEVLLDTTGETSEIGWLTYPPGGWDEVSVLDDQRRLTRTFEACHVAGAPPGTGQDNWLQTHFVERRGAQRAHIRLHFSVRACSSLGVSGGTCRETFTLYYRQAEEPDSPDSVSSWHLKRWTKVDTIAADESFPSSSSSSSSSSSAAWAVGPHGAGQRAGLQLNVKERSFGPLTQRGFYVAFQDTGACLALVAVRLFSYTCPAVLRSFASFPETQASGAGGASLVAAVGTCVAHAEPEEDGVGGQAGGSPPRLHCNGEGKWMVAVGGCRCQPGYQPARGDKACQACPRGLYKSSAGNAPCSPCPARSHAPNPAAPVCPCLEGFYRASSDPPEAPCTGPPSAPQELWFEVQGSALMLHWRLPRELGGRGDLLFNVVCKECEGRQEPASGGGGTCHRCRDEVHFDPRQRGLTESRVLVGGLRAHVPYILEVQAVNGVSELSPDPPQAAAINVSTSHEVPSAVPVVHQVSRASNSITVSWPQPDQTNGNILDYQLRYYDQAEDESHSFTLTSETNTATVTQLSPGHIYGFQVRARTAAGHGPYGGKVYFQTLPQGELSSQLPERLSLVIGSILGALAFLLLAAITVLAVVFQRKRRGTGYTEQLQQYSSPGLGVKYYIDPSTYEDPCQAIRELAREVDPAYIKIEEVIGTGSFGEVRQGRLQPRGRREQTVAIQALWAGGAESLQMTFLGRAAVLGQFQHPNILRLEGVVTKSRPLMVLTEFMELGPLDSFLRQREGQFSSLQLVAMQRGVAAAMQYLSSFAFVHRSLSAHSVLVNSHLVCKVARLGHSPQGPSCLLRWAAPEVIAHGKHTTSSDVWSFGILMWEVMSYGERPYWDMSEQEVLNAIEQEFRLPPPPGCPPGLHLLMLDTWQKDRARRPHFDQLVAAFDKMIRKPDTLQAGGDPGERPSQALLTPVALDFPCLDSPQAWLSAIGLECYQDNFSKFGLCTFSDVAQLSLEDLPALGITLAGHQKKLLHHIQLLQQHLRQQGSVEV

[4] = molecular target: T3, Ephrin type-A receptor 6 (Homo sapiens) (UniProt Q9UF33); assay: Inhibition of EPHA6 (unknown origin) assessed as residual activity at 100 nM by KINOMEscan analysis relative to control
T3 sequence (whole entry): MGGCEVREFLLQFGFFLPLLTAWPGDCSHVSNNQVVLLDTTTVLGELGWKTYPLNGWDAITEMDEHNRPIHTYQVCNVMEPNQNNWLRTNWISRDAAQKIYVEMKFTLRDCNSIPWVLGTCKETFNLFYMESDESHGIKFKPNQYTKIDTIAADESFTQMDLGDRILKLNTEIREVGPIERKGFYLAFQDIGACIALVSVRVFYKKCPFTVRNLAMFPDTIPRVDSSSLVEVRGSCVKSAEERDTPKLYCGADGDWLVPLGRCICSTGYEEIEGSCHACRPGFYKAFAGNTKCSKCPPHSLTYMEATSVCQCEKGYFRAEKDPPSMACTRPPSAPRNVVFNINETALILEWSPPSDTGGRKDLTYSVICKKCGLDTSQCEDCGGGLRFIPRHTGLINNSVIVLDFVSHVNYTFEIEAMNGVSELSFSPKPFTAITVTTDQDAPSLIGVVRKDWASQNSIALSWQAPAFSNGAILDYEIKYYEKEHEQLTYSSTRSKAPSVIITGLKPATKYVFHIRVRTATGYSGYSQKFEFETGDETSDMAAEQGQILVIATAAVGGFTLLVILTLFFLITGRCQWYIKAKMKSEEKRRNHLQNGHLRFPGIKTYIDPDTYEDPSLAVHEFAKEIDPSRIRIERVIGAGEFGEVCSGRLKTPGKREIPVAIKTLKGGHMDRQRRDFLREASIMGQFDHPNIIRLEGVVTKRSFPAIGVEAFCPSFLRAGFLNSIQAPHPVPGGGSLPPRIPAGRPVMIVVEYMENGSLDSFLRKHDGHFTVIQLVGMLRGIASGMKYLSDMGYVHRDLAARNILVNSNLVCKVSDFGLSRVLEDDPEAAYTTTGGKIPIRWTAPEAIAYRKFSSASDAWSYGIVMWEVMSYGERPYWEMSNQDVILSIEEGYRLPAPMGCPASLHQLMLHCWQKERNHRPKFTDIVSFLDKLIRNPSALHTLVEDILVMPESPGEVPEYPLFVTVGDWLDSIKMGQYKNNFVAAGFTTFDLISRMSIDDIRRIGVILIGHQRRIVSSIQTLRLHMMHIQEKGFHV

Chain of Serine/threonine-protein kinase MRCK gamma (Homo sapiens) (Q6DT37 whole entry): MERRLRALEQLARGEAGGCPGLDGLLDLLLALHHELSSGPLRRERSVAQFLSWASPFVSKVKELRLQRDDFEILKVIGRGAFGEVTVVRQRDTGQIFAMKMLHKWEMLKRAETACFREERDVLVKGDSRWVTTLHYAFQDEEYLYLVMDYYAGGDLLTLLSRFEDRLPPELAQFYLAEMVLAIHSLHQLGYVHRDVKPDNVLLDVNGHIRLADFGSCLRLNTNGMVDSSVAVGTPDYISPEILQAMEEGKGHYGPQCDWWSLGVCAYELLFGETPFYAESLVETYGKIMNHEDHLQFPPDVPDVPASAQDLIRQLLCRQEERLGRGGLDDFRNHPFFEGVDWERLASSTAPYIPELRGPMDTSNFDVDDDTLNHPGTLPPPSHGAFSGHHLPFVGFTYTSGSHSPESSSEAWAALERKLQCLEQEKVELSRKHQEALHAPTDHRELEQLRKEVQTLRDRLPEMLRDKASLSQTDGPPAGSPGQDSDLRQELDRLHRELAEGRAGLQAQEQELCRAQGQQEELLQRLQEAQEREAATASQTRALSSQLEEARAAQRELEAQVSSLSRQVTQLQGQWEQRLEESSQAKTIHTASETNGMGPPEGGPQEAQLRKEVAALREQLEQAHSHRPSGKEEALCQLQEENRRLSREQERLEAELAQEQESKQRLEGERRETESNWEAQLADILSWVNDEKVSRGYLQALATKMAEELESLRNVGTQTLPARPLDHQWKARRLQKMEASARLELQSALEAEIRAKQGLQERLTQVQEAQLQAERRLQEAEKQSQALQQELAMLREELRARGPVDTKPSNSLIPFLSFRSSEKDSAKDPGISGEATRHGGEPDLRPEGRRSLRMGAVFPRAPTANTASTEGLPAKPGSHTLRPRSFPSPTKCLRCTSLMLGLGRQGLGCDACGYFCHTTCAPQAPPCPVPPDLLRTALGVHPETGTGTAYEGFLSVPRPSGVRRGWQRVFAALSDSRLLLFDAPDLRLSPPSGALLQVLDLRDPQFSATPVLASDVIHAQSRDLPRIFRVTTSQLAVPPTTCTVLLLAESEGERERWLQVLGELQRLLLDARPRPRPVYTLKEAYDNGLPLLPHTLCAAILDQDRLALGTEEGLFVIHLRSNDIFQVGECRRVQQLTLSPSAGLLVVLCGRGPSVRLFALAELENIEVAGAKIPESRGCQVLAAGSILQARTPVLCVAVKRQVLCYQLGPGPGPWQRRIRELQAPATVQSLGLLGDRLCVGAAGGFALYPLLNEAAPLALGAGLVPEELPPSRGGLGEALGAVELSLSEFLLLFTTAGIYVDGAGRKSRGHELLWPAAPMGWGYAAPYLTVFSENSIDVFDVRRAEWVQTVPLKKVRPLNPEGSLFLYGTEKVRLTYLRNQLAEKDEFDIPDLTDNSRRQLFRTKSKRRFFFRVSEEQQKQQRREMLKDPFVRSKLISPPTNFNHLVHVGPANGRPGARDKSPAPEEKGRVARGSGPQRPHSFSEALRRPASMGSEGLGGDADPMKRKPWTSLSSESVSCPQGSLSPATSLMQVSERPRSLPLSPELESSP

`COc1cc2ncnc(N[C@H](C)c3cccc4ccccc34)c2cc1OC` was tested, and the Activity [1] was 33%, the Activity [2] was 85% and the Activity [3] was 77%. The Activity [4] was 77%.
